Assay results from ChEMBL document CHEMBL3885881, “DrugMatrix”.

Species: Rattus norvegicus
Assay: DrugMatrix - Regimen: Daily Repeat
Format: toxicity, organism-based, Sprague-Dawley
Parameters: regimen Daily Repeat, gender Male, age 6-8 weeks
Settings: in vivo, po, route oral GAVAGE, vehicle .5 % CMC; for BASOPHIL / EOSINOPHIL / ERYTHROCYTE COUNT / HEMATOCRIT / HEMOGLOBIN / LEUKOCYTE COUNT / LYMPHOCYTE / MEAN CORPUSCULAR HEMOGLOBIN / MEAN CORPUSCULAR HEMOGLOBIN CONCENTRATION / MEAN CORPUSCULAR VOLUME / MONOCYTE / NEUTROPHIL / PLATELET COUNT: tissue Blood; for ALANINE AMINOTRANSFERASE / ALBUMIN / ALKALINE PHOSPHATASE / ASPARTATE AMINOTRANSFERASE / BLOOD UREA NITROGEN / CHLORIDE / CHOLESTEROL / CREATINE PHOSPHOKINASE / CREATININE / GLUCOSE / PHOSPHORUS / POTASSIUM / SODIUM / TOTAL BILIRUBIN / TOTAL PROTEIN: tissue Plasma
[1] = 0 mg/kg, 72 h, dose level Control, time 3 day
[2] = 0 mg/kg, 120 h, dose level Control, time 5 day
[3] = 69 mg/kg, 72 h, dose level High, time 3 day
[4] = 69 mg/kg, 120 h, dose level High, time 5 day
[5] = […], 72 h, dose 6.9 mg/Kg, dose level Low, time 3 day
[6] = […], 120 h, dose 6.9 mg/Kg, dose level Low, time 5 day

Structure (SMILES): C[C@]12C/C(=C/O)C(=O)C[C@@H]1CC[C@@H]1[C@@H]2CC[C@@]2(C)[C@H]1CC[C@]2(C)O [OXYMETHOLONE]
- BASOPHIL [1]: 0.68%
- EOSINOPHIL [1]: 0.46%
- ERYTHROCYTE COUNT [1]: 7.15 x10E6/uL
- HEMATOCRIT [1]: 45.44%
- HEMOGLOBIN [1]: 14.1 G/DL
- LEUKOCYTE COUNT [1]: 9.78 x10E3/uL
- LYMPHOCYTE [1]: 84.44%
- MEAN CORPUSCULAR HEMOGLOBIN [1]: 19.72 pg
- MEAN CORPUSCULAR HEMOGLOBIN CONCENTRATION [1]: 31 G/DL
- MEAN CORPUSCULAR VOLUME [1]: 63.66 fL
- MONOCYTE [1]: 2.14%
- NEUTROPHIL [1]: 11.16%
- PLATELET COUNT [1]: 1378.2 x10E3/uL
- ALANINE AMINOTRANSFERASE [1]: 42.33 u/L
- ALBUMIN [1]: 3.8 G/DL
- ALKALINE PHOSPHATASE [1]: 388.17 u/L
- ASPARTATE AMINOTRANSFERASE [1]: 68 u/L
- BLOOD UREA NITROGEN [1]: 16.17 mg/dL
- CHLORIDE [1]: 96.67 MEQ/L
- CHOLESTEROL [1]: 71 mg/dL
- CREATINE PHOSPHOKINASE [1]: 156.17 u/L
- CREATININE [1]: 0.57 mg/dL
- GLUCOSE [1]: 193.67 mg/dL
- PHOSPHORUS [1]: 11.43 mg/dL
- POTASSIUM [1]: 7 MEQ/L
- SODIUM [1]: 140.33 MEQ/L
- TOTAL BILIRUBIN [1]: 0.48 mg/dL
- TOTAL PROTEIN [1]: 6.8 G/DL
- BASOPHIL [2]: 1.47%
- EOSINOPHIL [2]: 1%
- ERYTHROCYTE COUNT [2]: 7.12 x10E6/uL
- HEMATOCRIT [2]: 45.47%
- HEMOGLOBIN [2]: 14.1 G/DL
- LEUKOCYTE COUNT [2]: 11.38 x10E3/uL
- LYMPHOCYTE [2]: 82.57%
- MEAN CORPUSCULAR HEMOGLOBIN [2]: 19.82 pg
- MEAN CORPUSCULAR HEMOGLOBIN CONCENTRATION [2]: 31.02 G/DL
- MEAN CORPUSCULAR VOLUME [2]: 63.88 fL
- MONOCYTE [2]: 2.2%
- NEUTROPHIL [2]: 11.97%
- PLATELET COUNT [2]: 1267 x10E3/uL
- ALANINE AMINOTRANSFERASE [2]: 38 u/L
- ALBUMIN [2]: 3.72 G/DL
- ALKALINE PHOSPHATASE [2]: 391 u/L
- ASPARTATE AMINOTRANSFERASE [2]: 65.83 u/L
- BLOOD UREA NITROGEN [2]: 14.17 mg/dL
- CHLORIDE [2]: 107.67 MEQ/L
- CHOLESTEROL [2]: 61 mg/dL
- CREATINE PHOSPHOKINASE [2]: 148.33 u/L
- CREATININE [2]: 0.57 mg/dL
- GLUCOSE [2]: 177.17 mg/dL
- PHOSPHORUS [2]: 12.07 mg/dL
- POTASSIUM [2]: 7.2 MEQ/L
- SODIUM [2]: 151.5 MEQ/L
- TOTAL BILIRUBIN [2]: 0.58 mg/dL
- TOTAL PROTEIN [2]: 6.72 G/DL

Structure (SMILES): COc1ccc(Cc2nccc3cc(OC)c(OC)cc23)cc1OC [PAPAVERINE]
- BASOPHIL [3]: 0%
- EOSINOPHIL [3]: 0.33%
- ERYTHROCYTE COUNT [3]: 6.13 x10E6/uL
- HEMATOCRIT [3]: 36.97%
- HEMOGLOBIN [3]: 14.43 G/DL
- LEUKOCYTE COUNT [3]: 10.73 x10E3/uL
- LYMPHOCYTE [3]: 85%
- MEAN CORPUSCULAR HEMOGLOBIN [3]: 23.67 pg
- MEAN CORPUSCULAR HEMOGLOBIN CONCENTRATION [3]: 39.07 G/DL
- MEAN CORPUSCULAR VOLUME [3]: 60.5 fL
- MONOCYTE [3]: 1%
- NEUTROPHIL [3]: 13.67%
- PLATELET COUNT [3]: 1169 x10E3/uL
- ALANINE AMINOTRANSFERASE [3]: 36.33 u/L
- ALBUMIN [3]: 3.83 G/DL
- ALKALINE PHOSPHATASE [3]: 289.67 u/L
- ASPARTATE AMINOTRANSFERASE [3]: 57.33 u/L
- BLOOD UREA NITROGEN [3]: 13.67 mg/dL
- CHLORIDE [3]: 107.67 MEQ/L
- CHOLESTEROL [3]: 66.33 mg/dL
- CREATINE PHOSPHOKINASE [3]: 129.67 u/L
- CREATININE [3]: 0.5 mg/dL
- GLUCOSE [3]: 195.67 mg/dL
- PHOSPHORUS [3]: 11.97 mg/dL
- POTASSIUM [3]: 6.9 MEQ/L
- SODIUM [3]: 152.33 MEQ/L
- TOTAL BILIRUBIN [3]: 0.3 mg/dL
- TOTAL PROTEIN [3]: 6.13 G/DL
- BASOPHIL [4]: 0%
- EOSINOPHIL [4]: 0%
- ERYTHROCYTE COUNT [4]: 5.8 x10E6/uL
- HEMATOCRIT [4]: 35.07%
- HEMOGLOBIN [4]: 14.43 G/DL
- LEUKOCYTE COUNT [4]: 15.23 x10E3/uL
- LYMPHOCYTE [4]: 84.33%
- MEAN CORPUSCULAR HEMOGLOBIN [4]: 24.97 pg
- MEAN CORPUSCULAR HEMOGLOBIN CONCENTRATION [4]: 41.27 G/DL
- MEAN CORPUSCULAR VOLUME [4]: 60.43 fL
- MONOCYTE [4]: 3.67%
- NEUTROPHIL [4]: 12%
- PLATELET COUNT [4]: 973 x10E3/uL
- ALANINE AMINOTRANSFERASE [4]: 34 u/L
- ALBUMIN [4]: 3.67 G/DL
- ALKALINE PHOSPHATASE [4]: 334 u/L
- ASPARTATE AMINOTRANSFERASE [4]: 56.33 u/L
- BLOOD UREA NITROGEN [4]: 12.33 mg/dL
- CHLORIDE [4]: 105.33 MEQ/L
- CHOLESTEROL [4]: 57.67 mg/dL
- CREATINE PHOSPHOKINASE [4]: 142.67 u/L
- CREATININE [4]: 0.57 mg/dL
- GLUCOSE [4]: 174.33 mg/dL
- PHOSPHORUS [4]: 11.33 mg/dL
- POTASSIUM [4]: 7 MEQ/L
- SODIUM [4]: 149.67 MEQ/L
- TOTAL BILIRUBIN [4]: 0.43 mg/dL
- TOTAL PROTEIN [4]: 5.8 G/DL
- BASOPHIL [5]: 0%
- EOSINOPHIL [5]: 0.33%
- ERYTHROCYTE COUNT [5]: 5.94 x10E6/uL
- HEMATOCRIT [5]: 35.17%
- HEMOGLOBIN [5]: 14.13 G/DL
- LEUKOCYTE COUNT [5]: 12.43 x10E3/uL
- LYMPHOCYTE [5]: 87.33%
- MEAN CORPUSCULAR HEMOGLOBIN [5]: 23.8 pg
- MEAN CORPUSCULAR HEMOGLOBIN CONCENTRATION [5]: 40.2 G/DL
- MEAN CORPUSCULAR VOLUME [5]: 59.13 fL
- MONOCYTE [5]: 2.33%
- NEUTROPHIL [5]: 10%
- PLATELET COUNT [5]: 1083 x10E3/uL
- ALANINE AMINOTRANSFERASE [5]: 43.67 u/L
- ALBUMIN [5]: 3.7 G/DL
- ALKALINE PHOSPHATASE [5]: 347.67 u/L
- ASPARTATE AMINOTRANSFERASE [5]: 64.67 u/L
- BLOOD UREA NITROGEN [5]: 11.67 mg/dL
- CHLORIDE [5]: 107 MEQ/L
- CHOLESTEROL [5]: 64.33 mg/dL
- CREATINE PHOSPHOKINASE [5]: 170 u/L
- CREATININE [5]: 0.5 mg/dL
- GLUCOSE [5]: 172 mg/dL
- PHOSPHORUS [5]: 11.1 mg/dL
- POTASSIUM [5]: 6.23 MEQ/L
- SODIUM [5]: 149 MEQ/L
- TOTAL BILIRUBIN [5]: 0.37 mg/dL
- TOTAL PROTEIN [5]: 5.77 G/DL
- BASOPHIL [6]: 0%
- EOSINOPHIL [6]: 0.33%
- ERYTHROCYTE COUNT [6]: 6.2 x10E6/uL
- HEMATOCRIT [6]: 37.4%
- HEMOGLOBIN [6]: 15.4 G/DL
- LEUKOCYTE COUNT [6]: 12.83 x10E3/uL
- LYMPHOCYTE [6]: 87.33%
- MEAN CORPUSCULAR HEMOGLOBIN [6]: 24.87 pg
- MEAN CORPUSCULAR HEMOGLOBIN CONCENTRATION [6]: 41.17 G/DL
- MEAN CORPUSCULAR VOLUME [6]: 60.33 fL
- MONOCYTE [6]: 1.33%
- NEUTROPHIL [6]: 11%
- PLATELET COUNT [6]: 1006 x10E3/uL
- ALANINE AMINOTRANSFERASE [6]: 35 u/L
- ALBUMIN [6]: 3.73 G/DL
- ALKALINE PHOSPHATASE [6]: 374.33 u/L
- ASPARTATE AMINOTRANSFERASE [6]: 60.33 u/L
- BLOOD UREA NITROGEN [6]: 12.33 mg/dL
- CHLORIDE [6]: 108.33 MEQ/L
- CHOLESTEROL [6]: 61.33 mg/dL
- CREATINE PHOSPHOKINASE [6]: 131.67 u/L
- CREATININE [6]: 0.6 mg/dL
- GLUCOSE [6]: 168.67 mg/dL
- PHOSPHORUS [6]: 10.03 mg/dL
- POTASSIUM [6]: 6.13 MEQ/L
- SODIUM [6]: 153.67 MEQ/L
- TOTAL BILIRUBIN [6]: 0.33 mg/dL
- TOTAL PROTEIN [6]: 5.97 G/DL
